Test results: patent publication EP4818168A1, “FUSED RING COMPOUND, PHARMACEUTICAL COMPOSITION THEREOF AND USE THEREOF” (priority 2023, dated 2025)
Where two headings read alike, the source gives them in different places.

Target: T1, AURKA (Homo sapiens, UniProt O14965)
T1 construct: endogenous in cells; host or cells: Jurkat cells
T1 sequence (O14965 1-403): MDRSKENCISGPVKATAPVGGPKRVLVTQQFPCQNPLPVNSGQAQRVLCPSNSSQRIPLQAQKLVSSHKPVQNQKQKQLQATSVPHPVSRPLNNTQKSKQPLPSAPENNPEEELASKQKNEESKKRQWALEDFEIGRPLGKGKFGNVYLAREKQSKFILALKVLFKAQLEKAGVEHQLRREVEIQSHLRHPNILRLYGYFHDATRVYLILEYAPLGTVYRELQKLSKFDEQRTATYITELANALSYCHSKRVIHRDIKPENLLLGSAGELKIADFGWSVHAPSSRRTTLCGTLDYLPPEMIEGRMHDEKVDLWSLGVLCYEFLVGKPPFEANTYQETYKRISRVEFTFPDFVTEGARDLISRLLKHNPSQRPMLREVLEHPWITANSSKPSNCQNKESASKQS
Type: cell-based
Settings: Jurkat cells, 24 h
Text: WB is a classical biochemical experimental method used to detect the abundance of a target protein in a sample of cells or biological tissue. It relies on specific antigen-antibody binding to detect protein signals from the sample processed by gel electrophoresis: the protein specifically binds to a primary antibody at an epitope; the primary antibody is then conjugated with a secondary antibody to amplify the signal cascade; the signal is read out by chemiluminescent or fluorescent detection. The intracellular protein content is ultimately characterized by the intensity of the optical signals. […] The DC50 value can be calculated by curve fitting of the protein WB exposure signals.
The experimental procedure is as follows: • 1. Seed Jurkat cells into a 12-well plate at 1×10^6 cells/500 µL/well. • 2. Mix the culture medium with the compound to a concentration that is twice the desired final concentration. […] Transfer the cell suspension to a centrifuge tube. Rinse the 12-well plate with PBS and then transfer the PBS from the plate to the same centrifuge tube. Centrifuge at 3000 rpm for 5 min at room temperature. Aspirate the supernatant using a vacuum pump. […] Lyse on ice for 20 min. • 4. Centrifuge the lysed sample at 13000 rpm for 20 min at 4°C. Mix the supernatant with 5× protein loading buffer. Boil at 100°C for 5 min and then cool. Store the denatured protein sample at -20°C. • 5. […] Run electrophoresis at 80 V for 20 min, and then at 120 V constant voltage for 60 min. • 6. Transfer the protein onto a nitrocellulose membrane in an ice bath at 250 mA constant current for 90 min. • 7. […] Incubate with a primary antibody overnight at 4°C. • 9. […] Incubate with a secondary antibody for 1-2 h at room temperature. • 10. […] Expose and image the membrane using a LICOR Odyssey DLx imager.

SMILES | Percentage of AURKA Degradation Induced by 100 nM Compound in Jurkat Cells (Table 1) | Percentage of AURKA Degradation Induced by 1 µM Compound in Jurkat Cells (Table 1) | Percentage of AURKA Degradation Induced by 100 nM Compound in Jurkat Cells (Table 2) | Percentage of AURKA Degradation Induced by 1 µM Compound in Jurkat Cells (Table 2)
COc1cc(Nc2ncc3c(n2)-c2ccc(Cl)cc2C(c2c(F)cccc2OC)=NC3)ccc1C(=O)N[C@H]1C[C@@H](C#Cc2cccc3c2CN(C2CCC(=O)NC2=O)C3=O)C1 (relative stereo) [Compound A6] | ++ (30% < Degradation ≤ 70%) | + (Degradation ≤ 30%) | – | –
COc1cc(Nc2ncc3c(n2)-c2ccc(Cl)cc2C(c2c(F)cccc2OC)=NC3)ccc1C(=O)NCCOCCNc1cccn2c(N3CCC(=O)NC3=O)cnc12 [Compound A20] | ++ (30% < Degradation ≤ 70%) | ++ (30% < Degradation ≤ 70%) | – | –
COc1cc(Nc2ncc3c(n2)-c2ccc(Cl)cc2C(c2c(F)cccc2OC)=NC3)ccc1C(=O)NCCN1CCN(c2ccc(-n3ccc(=O)[nH]c3=O)cn2)CC1 [Compound A31] | ++ (30% < Degradation ≤ 70%) | ++ (30% < Degradation ≤ 70%) | – | –
O=C1CCN(c2ccc(C#C[C@H]3C[C@H](NC(=O)c4ccc(Nc5ncc6c(n5)-c5ccc(Cl)cc5C(c5c(F)cccc5F)=NC6)cc4)C3)cc2)C(=O)N1 [Compound A53] | ++ (30% < Degradation ≤ 70%) | ++ (30% < Degradation ≤ 70%) | – | –
O=C1CCN(c2ccc(N3CC4(CC(NC(=O)c5ccc(Nc6ncc7c(n6)-c6ccc(Cl)cc6C(c6c(F)cccc6F)=NC7)cc5)C4)C3)nc2)C(=O)N1 [Compound A60] | +++ (Degradation > 70%) | +++ (Degradation > 70%) | – | –
O=C1CCN(c2cccc(N3CC4(CC(NC(=O)c5ccc(Nc6ncc7c(n6)-c6ccc(Cl)cc6C(c6c(F)cccc6F)=NC7)cc5)C4)C3)c2)C(=O)N1 [Compound A62] | ++ (30% < Degradation ≤ 70%) | ++ (30% < Degradation ≤ 70%) | – | –
CN1C(=O)CCN(c2ccc(N3CCC4(CC3)CC(NC(=O)c3ccc(Nc5ncc6c(n5)-c5ccc(Cl)cc5C(c5c(F)cccc5F)=NC6)cc3)C4)nc2)C1=O [Compound A82] | – | – | + (Degradation ≤ 30%) | + (Degradation ≤ 30%)
O=C1CCN(c2ccc(N3CC(N4CC(NC(=O)c5ccc(Nc6ncc7c(n6)-c6ccc(Cl)cc6C(c6c(F)cccc6F)=NC7)cc5)C4)C3)nc2)C(=O)N1 [Compound A84] | – | – | ++ (30% < Degradation ≤ 70%) | +++ (Degradation > 70%)
O=C1CCN(C23CCC(N4CCN(CCNC(=O)c5ccc(Nc6ncc7c(n6)-c6ccc(Cl)cc6C(c6c(F)cccc6F)=NC7)cc5)CC4)(CC2)CC3)C(=O)N1 [Compound A91] | – | – | + (Degradation ≤ 30%) | + (Degradation ≤ 30%)
O=C1CCN(C23CC(N4CCN(CCNC(=O)c5ccc(Nc6ncc7c(n6)-c6ccc(Cl)cc6C(c6c(F)cccc6F)=NC7)cc5)CC4)(C2)C3)C(=O)N1 [Compound A92] | – | – | + (Degradation ≤ 30%) | + (Degradation ≤ 30%)
O=C1CCN(c2ccc(N3CCC4(CC3)CC(NC(=O)c3ccc(Nc5ncc6c(n5)-c5ccc(Cl)cc5C(c5c(F)cccc5F)=NC6)cc3)C4)c(F)c2)C(=O)N1 [Compound A93] | – | – | ++ (30% < Degradation ≤ 70%) | +++ (Degradation > 70%)
O=C1CCN(c2ccc(N3CCN(CCNc4ccc(Nc5ncc6c(n5)-c5ccc(Cl)cc5C(c5c(F)cccc5F)=NC6)cc4)CC3)cc2)C(=O)N1 [Compound A108] | – | – | + (Degradation ≤ 30%) | + (Degradation ≤ 30%)
O=C1CCN(c2ccc(N3CCN(CCn4ccnc4-c4ccc(Nc5ncc6c(n5)-c5ccc(Cl)cc5C(c5c(F)cccc5F)=NC6)cc4)CC3)cc2)C(=O)N1 [Compound A111] | – | – | + (Degradation ≤ 30%) | + (Degradation ≤ 30%)
O=C1CCN(c2ccc([C@H]3C[C@H](N4CC(NC(=O)c5ccc(Nc6ncc7c(n6)-c6ccc(Cl)cc6C(c6c(F)cccc6F)=NC7)cc5)C4)C3)nc2)C(=O)N1 [Compound A113] | – | – | +++ (Degradation > 70%) | ++ (30% < Degradation ≤ 70%)
O=C1CCN(c2ccc([C@H]3C[C@@H](N4CC(NC(=O)c5ccc(Nc6ncc7c(n6)-c6ccc(Cl)cc6C(c6c(F)cccc6F)=NC7)cc5)C4)C3)nc2)C(=O)N1 [Compound A114] | – | – | +++ (Degradation > 70%) | +++ (Degradation > 70%)
Cc1ccc(N2CCN(CCC#Cc3cccc(Nc4ncc5c(n4)-c4ccc(Cl)cc4C(c4c(F)cccc4F)=NC5)c3)CC2)cc1N1CCC(=O)NC1=O [Compound A117] | – | – | ++ (30% < Degradation ≤ 70%) | ++ (30% < Degradation ≤ 70%)
O=C1CCN(c2ccc(N3CCC4(CC3)CC(NC(=O)c3ccc(Nc5ncc6c(n5)-c5ccc(Cl)cc5C(c5ccccc5Cl)=NC6)cc3)C4)nc2)C(=O)N1 [Compound A119] | – | – | +++ (Degradation > 70%) | +++ (Degradation > 70%)
O=C1CCN(c2cccc(N3CCN(CC#Cc4ccc(Nc5ncc6c(n5)-c5ccc(Cl)cc5C(c5c(F)cccc5F)=NC6)cc4)CC3)c2)C(=O)N1 [Compound A123] | – | – | + (Degradation ≤ 30%) | + (Degradation ≤ 30%)
O=C1CCN(c2ccc(C#CCN3CCn4c(cnc4-c4ccc(Nc5ncc6c(n5)-c5ccc(Cl)cc5C(c5c(F)cccc5F)=NC6)cc4)C3)cc2)C(=O)N1 [Compound A139] | – | – | +++ (Degradation > 70%) | +++ (Degradation > 70%)
O=C1CCN(c2cnc(N3CCC(N4CCN(c5ccc(Nc6ncc7c(n6)-c6ccc(Cl)cc6C(c6c(F)cccc6F)=NC7)cc5)C(=O)C4)CC3)s2)C(=O)N1 [Compound A154] | – | – | +++ (Degradation > 70%) | ++ (30% < Degradation ≤ 70%)
O=C1CCN(c2ccc(N3CCC(Cn4cnc(-c5ccc(Nc6ncc7c(n6)-c6ccc(Cl)cc6C(c6c(F)cccc6F)=NC7)cc5)c4)CC3)nc2)C(=O)N1 [Compound A159] | – | – | +++ (Degradation > 70%) | +++ (Degradation > 70%)
O=C1CCN(c2ccc(N3CC(Cn4cnc(-c5ccc(Nc6ncc7c(n6)-c6ccc(Cl)cc6C(c6c(F)cccc6F)=NC7)cc5)c4)C3)nc2)C(=O)N1 [Compound A160] | – | – | ++ (30% < Degradation ≤ 70%) | ++ (30% < Degradation ≤ 70%)
Cc1c(N2CCC(C#Cc3cccc(Nc4ncc5c(n4)-c4ccc(Cl)cc4C(c4c(F)cccc4F)=NC5)c3)CC2)cccc1N1CCC(=O)NC1=O [Compound A161] | – | – | + (Degradation ≤ 30%) | ++ (30% < Degradation ≤ 70%)
Cc1c(N2CCN(CCc3cccc(Nc4ncc5c(n4)-c4ccc(Cl)cc4C(c4c(F)cccc4F)=NC5)c3)CC2)cncc1N1CCC(=O)NC1=O [Compound A162] | – | – | ++ (30% < Degradation ≤ 70%) | ++ (30% < Degradation ≤ 70%)
Cc1c(N2CCC3(CC2)CN(Cc2cccc(Nc4ncc5c(n4)-c4ccc(Cl)cc4C(c4c(F)cccc4F)=NC5)c2)C3)cccc1N1CCC(=O)NC1=O [Compound A163] | – | – | ++ (30% < Degradation ≤ 70%) | + (Degradation ≤ 30%)
